Like-named read-outs stand apart in the source and are kept apart here. One block for each compound: values may come before it.
Tests used:
[1] = test system: Hela cell; experiment: Hela cell evaluation method (cytological test, rhIFN-γ stimulated); format: cell-based; settings: Hela cells with 50 ng/mL rhIFN-γ, incubated 48 hours, OD at 480 nm
Experimental: Hela Cell Evaluation Method
(§1) Test Sample: Compounds Prepared in the Corresponding Examples of the Present Invention
Helacell strain (Purchased from ATCC, Cat. No. CCL-2, 4965442)
Recombinant Human IFN-γ (rhIFN-γ, Purchased from Peprotech, Cat. No. 300-02)
Cell plating: Hela cell suspension was prepared from fresh MEM cell culture medium, added to a 96-well cell culture plate at 5000 cells/well, and cultured at 5% carbon dioxide at 37° C. overnight.
Preparation of compound: The compound was formulated into 2 mM in DMSO, and the compound was diluted 5-fold in DMSO to obtain a compound dilution mother solution (200×) of 6 to 9 concentration gradients, and a 10× dilution solution was prepared in proportion with cell culture medium or liquid.
Dosing incubation: After the cells were plated overnight, 10 μL of the corresponding compound dilution mother solution (10×) and 10 μL of 500 ng/mL rhIFN-γ were added to each well, and the final volume of each well was 100 μL. The negative control wells contained 100 μL of 0.5% DMSO cell culture medium and Hela cells. 50 ng/mL of rhIFN-γ were filled into negative control wells, which are used as positive control. Background control wells contained 100 μL of cell culture medium. Incubation was performed for 48 hours in a 37° C. incubator and cell morphology was observed under an inverted microscope.
Detection: 80 μL of the supernatant was added to a Corning 3894 plate, and 10 μL of 6.1 N trichloroacetic acid was added to each well. The plate was shaken for 2 minutes, placed in a 50° C. incubator to react for 30 minutes, centrifuged at 2500 rpm for 10 minutes. 70 μL of the supernatant was transferred to a Corning 3635 UV plate, added with 70 μL of the reaction solution and the mixture was shaken for 2 minutes to make the reaction mixture uniform. The OD value at 480 nm was measured using EnSpire (PE).

[2] = target: T1, IDO1 (Homo sapiens, UniProt P14902); experiment: IDO1 enzymology evaluation method; format: biochemical; settings: IDO-1 enzyme, dynamic OD at 321 nm, IC50 fitted with GraphPad Prism
T1 construct: purchased CP lot number: 20160706
Experimental: IDO1 Enzymology Evaluation Method
as §1
Preparation of compound: The compound was formulated into 1 mM compound mother liquor in DMSO, and the compound was diluted 3-fold in DMSO to obtain a compound concentration dilution mother solution (100×) of 9 concentration gradients.
Dosing inhibition: 2 μL of 100× compound dilution mother solution was added to a 96-well plate, added with 100 μL of enzyme solution (IDO-1), and incubated for 10 min at room temperature. 100% DMSO was used as a negative control and NLG-919 was used as a positive control. Incubation was performed with 100 μL of substrate mixture (L-tryptophan, ascorbate, methylene blue, and catalase).
Detection: Dynamic OD data at 321 nm was detected using Spectramax.
Calculation: The inhibition rate was calculated according to the following formula.
The curve slope was fitted using the Spectramax program, and IC50 was fitted using GraphPad Prism 5.0.

[3] = Rat PK evaluation of the compounds; format: in vivo; settings: SD rats; for Cl_obs iv / Vz_obs iv / tz1/2 iv / tZ1/2 PO / bioavailability / AUC(0-inf): n = 3; for tZ1/2 PO: PO (intragastric) 5 mg/kg; for bioavailability / AUC(0-inf) / Tmax: Sprague-Dawley, rat, plasma; for Tmax: n = 3, median
Experimental: Example 3: Rat PK Evaluation of the Compounds
(§2) Animal administration and sample collection: intragastric administration: Compounds 2 and 13 were dissolved in 10% DMA+10% (30% Solutol)+80% physiological saline to prepare a solution. Compound 15 was dissolved in 10% DMA+10% PEG400+80% physiological saline to prepare a solution. The SD rats were intragastrically administered at a dose of 5.0 mg/kg. The time of blood collection was: 15 min, 30 min, 1 h, 2 h, 4 h, 6 h, 8 h and 24 h.
as §2, with “Intravenous” for “Animal administration and sample collection: intragastric”, “intravenous” for “intragastrically”, “1” for “5.0”, “was: 5 min,” for “was:”
The animals were fixed, the tail was heated in a water bath 10 min before each time point, and about 100 μL of blood was collected through the tail vein, and the blood was then placed in an anti-coagulation tube containing EDTA-K2. Blood samples were centrifuged at 8000 rpm for 6 min at 4° C. to obtain plasma samples, which must be prepared within 30 min of blood collection. The plasma samples were stored at −80° C. in a freezer before test.
Take the sample to be tested from the refrigerator (−80° C.), melted at room temperature and vortexed for 5 min. 20 μL of plasma sample was accurately pipetted into a 1.5 mL centrifuge tube; added with 200 μL of internal standard working solution at a concentration of 50 ng/mL and mixed well. The mixture was vortexed for 5 min (12000 rpm) and centrifuge for 5 min (12000 rpm). 50 μL of supernatant was accurately pipetted into 96-well plates pre-filled with 150 μL/well of water; vortexed for 5 min to mix well. The inject volume was 20 μL and LC-MS/MS was performed.
The concentration of the test sample was output by using Analyst 1.6.3 from AB. The mean, standard deviation, coefficient of variation and other parameters were calculated by Microsoft Excel (direct output from Analyst 1.6.3 is not calculated). PK parameters are calculated by using Pharsight Phoenix 6.1 software NCA (Tmax is the median).

[4] = IV 1 mg/kg, read-out: AUCinf iv
[5] = PO 5 mg/kg, read-out: AUCinf PO

T1 sequence (P14902 whole entry, species assumed): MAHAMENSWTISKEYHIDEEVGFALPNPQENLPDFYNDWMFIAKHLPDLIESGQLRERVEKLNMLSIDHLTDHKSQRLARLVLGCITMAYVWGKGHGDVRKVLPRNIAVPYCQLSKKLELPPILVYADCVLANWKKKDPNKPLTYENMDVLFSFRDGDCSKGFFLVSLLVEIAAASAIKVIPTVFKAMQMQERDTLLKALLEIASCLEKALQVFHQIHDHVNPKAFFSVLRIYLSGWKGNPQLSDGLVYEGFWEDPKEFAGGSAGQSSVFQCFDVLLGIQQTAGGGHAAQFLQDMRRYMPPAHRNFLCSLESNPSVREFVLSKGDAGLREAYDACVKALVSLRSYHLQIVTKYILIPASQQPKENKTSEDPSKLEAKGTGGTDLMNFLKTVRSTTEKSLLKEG

Compound: O=S1(=O)CCC(Nc2nonc2C(=NO)Nc2ccc(F)c(Br)c2)C1 (single isomer, unassigned) [Compound 15-P1]
- IC50 [1]: 19.4 nM
- IC50 [2]: 200 nM

Compound: O=S1(=O)CCC(Nc2nonc2C(=NO)Nc2ccc(F)c(Br)c2)C1 (single isomer, unassigned) [Compound 15-P2]
- IC50 [1]: 119 nM
- IC50 [2]: 240 nM

Compound: ON=C(Nc1ccc(F)c(Br)c1)c1nonc1NC1CCOCC1 [Compound 1, N-(3-bromo-4-fluorophenyl)-N′-hydroxy-4-((tetrahydro-2H-pyran-4-yl)amino)-1,2,5-oxadiazol-3-formamidine]
- IC50 ([1]; Homo sapiens, HeLa, 48 h): 109 nM

Compound: NS(=O)(=O)N1CCC(Nc2nonc2C(=NO)Nc2ccc(F)c(Br)c2)CC1 [Compound 4]
- IC50 ([1]; Homo sapiens, HeLa, 48 h): 78.8 nM

Compound: ON=C(Nc1ccc(F)c(Br)c1)c1nonc1NC1CC2(COC2)C1 [Compound 12, 4-((2-oxaspiro[3.3]heptan-6-yl)amino)-N-(3-bromo-4-fluorophenyl)-N′-hydroxy-1,2,5-oxadiazol-3-carboxamidine]
- IC50 ([1]; Homo sapiens, HeLa, 48 h): 105 nM

Compound: CS(=O)(=O)N1CC2(CC(Nc3nonc3C(=NO)Nc3ccc(F)c(Br)c3)C2)C1 [Compound 16, N-(3-bromo-4-fluorophenyl)-N′-hydroxy-4-((2-(methylsulfonyl)-2-azaspiro[3.3]heptan-6-yl)amino)-1,2,5-oxadiazol-3-formamidine]
- IC50 ([1]; Homo sapiens, HeLa, 48 h): 78.3 nM
- IC50 [2]: 170 nM

Further compounds by falling IC50 ([1]; Homo sapiens, HeLa, 48 h), results first:

- IC50 ([1]; Homo sapiens, HeLa, 48 h): 76 nM
Compound: O=S1(=O)CC(Nc2nonc2C(=NO)Nc2ccc(F)c(Br)c2)C1 [Compound 26, N-(3-bromo-4-fluorophenyl)-4-((1,1-dioxothietan-3-yl)amino)-N′-hydroxy-1,2,5-oxadiazol-3-formamidine]

- IC50 ([1]; Homo sapiens, HeLa, 48 h): 71 nM
Compound: CS(=O)(=O)N1CCC(Nc2nonc2C(=NO)Nc2ccc(F)c(Br)c2)CC1 [Compound 3, N-(3-bromo-4-fluorophenyl)-N′-hydroxy-4-((1-(methylsulfonyl)piperidin-4-yl)amino)-1,2,5-oxadiazol-3-formamidine]

- IC50 ([1]; Homo sapiens, HeLa, 48 h): 68.6 nM
- IC50 [2]: 220 nM
- Cl_obs iv ([3]; IV 1 mg/kg): 53.3 mL/min/kg
- Vz_obs iv ([3]; IV 1 mg/kg): 9.00 L/kg
- tz1/2 iv ([3]; IV 1 mg/kg): 2.00 h
- tZ1/2 PO [3]: 1.67 h
- bioavailability ([3]; IV 1 mg/kg, PO 5 mg/kg): 36.9%
- AUC(0-inf) [3, 4]: 336 ng·h/mL
- Tmax ([3]; PO 5 mg/kg): 15 min
- AUC(0-inf) [3, 5]: 620 ng·h/mL
Compound: O=S1(=O)CC2(CC(Nc3nonc3C(=NO)Nc3ccc(F)c(Br)c3)C2)C1 [Compound 13, N-(3-bromo-4-fluorophenyl)-4-((2,2-dioxo-2-thiaspiro[3.3]heptan-6-yl)amino)-N′-hydroxy-1,2,5-oxadiazol-3-formamidine]

- IC50 ([1]; Homo sapiens, HeLa, 48 h): 51.6 nM
- IC50 [2]: 220 nM
- Cl_obs iv ([3]; IV 1 mg/kg): 45.5 mL/min/kg
- Vz_obs iv ([3]; IV 1 mg/kg): 4.03 L/kg
- tz1/2 iv ([3]; IV 1 mg/kg): 1.03 h
- tZ1/2 PO [3]: 3.40 h
- bioavailability ([3]; IV 1 mg/kg, PO 5 mg/kg): 28.1%
- AUC(0-inf) [3, 4]: 367 ng·h/mL
- Tmax ([3]; PO 5 mg/kg): 60 min
- AUC(0-inf) [3, 5]: 516 ng·h/mL
Compound: O=S1(=O)CCC(Nc2nonc2C(=NO)Nc2ccc(F)c(Br)c2)C1 (stereo not shown) [Compound 15, N-(3-bromo-4-fluorophenyl)-4-((1,1-dioxo-tetrahydrothiophen-3-yl)amino)-N′-hydroxy-1,2,5-oxadiazol-3-formamidine]

- IC50 ([1]; Homo sapiens, HeLa, 48 h): 39.7 nM
- Cl_obs iv ([3]; IV 1 mg/kg): 32.8 mL/min/kg
- Vz_obs iv ([3]; IV 1 mg/kg): 5.02 L/kg
- tz1/2 iv ([3]; IV 1 mg/kg): 1.82 h
- tZ1/2 PO [3]: 3.81 h
- bioavailability ([3]; IV 1 mg/kg, PO 5 mg/kg): 62.2%
- AUC(0-inf) [3, 4]: 521 ng·h/mL
- Tmax ([3]; PO 5 mg/kg): 15 min
- AUC(0-inf) [3, 5]: 1620 ng·h/mL
Compound: O=S1(=O)CCC(Nc2nonc2C(=NO)Nc2ccc(F)c(Br)c2)CC1 [Compound 2, N-(3-bromo-4-fluorophenyl)-4-((1,1-dioxotetrahydro-2H-thiopyran-4-yl)amino)-N′-hydroxy-1,2,5-oxadiazol-3-formamidine]
